According to patent US10668032B2 (SyneuRx International (Taiwan) Corp., priority 2016, dated 2020):

Legend:
cortical neurons = test: Mitochondrial respiration, XF Cell Mito Stress Test (OCR); assay type: cell-based, rat; settings: 3 mM, pre-treatment 24 h
Method: The preparation of primary cortical culture was as described before, but the cells were seeded on XF 96 well cell culture microplates. On the day of assay, culture media were changed to XF Assay medium (Seahorse Biosciences, USA). Prior to assay, plates were transferred into an incubator with CO2 supplementation at 37° C. and kept for 1 hour. The overall OCR was calculated.
The XF Cell Mito Stress Test modulates respiration that target components of the electron transport chain (ETC) in the mitochondria to reveal key parameters of metabolic function. The modulators (oligomycin, FCCP, and a mix of rotenone and antimycin A) are serially injected to measure ATP production, maximal respiration, and non-mitochondrial respiration. Proton leak and spare respiratory capacity are then calculated using these parameters.

C57BL/6J mice = test: Von Frey test of acute mechanical pain; assay type: in vivo, mouse; settings: 256 mg/kg i.p.
Method: Animals are housed and kept in the same condition as previous described.
The Von Frey test is used to assess mechanical nociception. A mouse is placed in a small box (10 cm×6 cm×10.5 cm) on a confined area of wire mesh (65 cm×21 cm×31 cm) (2450 Electronic Von Frey Anesthesiometer, IITC, U.S.A.). The mouse was kept in the box for 60 min to acclimatize. When the tested mouse calms down, a special tip with electrode inside was used to poke its hind paw.

[1] = test system: GFAP positive cells in cortical culture; test: GFAP immunocytochemistry in cortical culture after Aβ25-35; assay type: cell-based, rat
Method: Cells were fixed in 4% PFA and washed in PBS, blocked with 2% bovine serum albumin (BSA) and 0.03% Triton X-100 in PBS, and then incubated with mouse monoclonal antibody against microtubule-associated protein-2 (MAP-2) (Cat. No. MAB378, 1:150, CHEMICON International, Inc., Temecula, Calif., USA); rabbit polyclonal antibody against GFAP (Cat. No. Z0334, 1:600, DakoCytomation Denmark A/S, Denmark). The goat anti-mouse IgG Alexa Fluor-conjugated secondary antibodies (1:500; Cat No. A11003, Thermo Scientific); anti-rabbit IgG Alexa Fluor-conjugated secondary antibodies (1:500; Thermo Scientific) were applied respectively to recognize the primary antibodies of the MAP-2 and GFAP.
(§1) The coverslips were observed under a digital imaging fluorescence microscope (Olympus BX61; Japan) equipped with filter sets to detect the corresponding fluorescence signals.
Glial fibrillary acidic protein (GFAP) is an intermediate filament protein expressed by cells in the CNS, and is also recognized as an astrocyte maturation marker. Upregulation of GFAP, indicating gliosis, is commonly observed after CNS lesion; therefore, expression of GFAP could be useful to understand the state of neurological diseases.

[2] = test system: cortical cells with Aβ25-35 exposure; test: Aβ25-35 cytotoxicity with or without NMDA receptor antagonist MK801, cell survival
Method: Aβ25-35 (Cat. No. A4559, Sigma) was dissolved in autoclaved ddH2O to make a stock solution of 2 mM, dispensed into aliquots, and immediately stored at −80° C. until use.
In this study, the application of MK801 could reveal whether the neuroprotective effects of drugs were mediated by NMDA receptor.

primary cortical neurons [3] = test: Aβ25-35 cytotoxicity in primary cortical culture, cell survival (MTT)
Method: MTT assay was used to assess the extents of cell survival. MTT (3-(4,5-dimethylthiazol-2-yl)-2,5-diphenyltetrazolium bromide) was added to the culture, incubated at 37° C. for 4 hours. Insoluble purple formazan products were yield by living cells. The colorimetric method was used to quantify the surviving cells, and “cell survival (%)” was defined as the mean numbers of surviving cells.
Primary cortical cultures were prepared as previous described. Aβ25-35 (Cat. No. A4559, Sigma) was dissolved in autoclaved ddH2O to make a stock solution of 2 mM, dispensed into aliquots, and immediately stored at −80° C. until use.

primary cortical neurons [4] = test: 3-NP induced toxicity in primary cortical culture (Hoechst staining, MAP-2 immunocytochemistry); assay type: cell-based, rat
Method: Primary cortical cultures were prepared from embryonic day 18 (E18) fetal Sprague Dawley (SD) rat brains. The cells were maintained in Neurobasal medium supplemented with B27 (GIBCO/Life Technologies of Thermo Fisher Scientific Corporation) at 37° C. for 7 days to allow growth of dendrites before experimentation.
3-NP (Cat. No. 73803, Sigma, St. Louis, Mo., USA) was dissolved in phosphate-buffered saline (PBS) as a stock solution of 1 M and adjusted to pH 7.4 with 10 M sodium hydroxide. The 3-NP stock solution was then dispensed into 1-ml aliquots, protected from light, and stored at −20° C. until use.
Hoechst staining is used to assess the extent of the cell survival. Cells were fixed in 4% paraformaldehyde (PFA) in phosphate-buffered saline (PBS), incubated with the Hoechst 33342 diluted in PBS (1:1000) for 5-15 minutes. The Hoechst staining is used to assess the extent of the cell survival after the exposure to 2.5 mM 3-NP for 24 hours.
Cells were fixed in 4% PFA and washed in PBS, blocked with 2% bovine serum albumin (BSA) and treated by 0.03% Triton X-100 in PBS, before being incubated with mouse monoclonal antibody against microtubule-associated protein-2 (MAP-2) in 1:150 dilution (Cat. No. MAB378, CHEMICON International, Inc., Temecula, Calif., USA). The goat anti-mouse IgG Alexa fluor-conjugated secondary antibodies (Cat No. A11003, Thermo Scientific) in 1:500 dilution were applied to recognize the primary antibodies of the MAP-2. For confocal microscopy, the coverslips were observed under a laser-scanning confocal microscope (Zeiss LSM700; Oberkochen, Germany) equipped with filter sets to detect the corresponding fluorescent signals.
The cells were then exposed to 2.5 mM 3-NP for 24 hours.
Quantitative analysis was also performed to assess the extents of cell death. At least three vision fields were randomly selected and the averaged numbers of dead cells and all nuclei per vision field on each coverslip were calculated.

primary cortical cells = test: Neurogenesis (BrdU/NeuN co-localization) in primary cortical culture after Aβ25-35; assay type: cell-based, rat; settings: 0.5 mM, 4 days; compared with the other two drugs
Method: Primary cortical cultures were prepared from embryonic day 18 (E18) fetal Spragu-Dawley (SD) rat brains. Culture medium was removed from cells and replace with BrdU labeling solution and incubated at 37° C. for 4 days aligned with treatments after Aβ25-35 for 2 days. Cells were fixed in 4% PFA and washed in PBS, blocked with 2% bovine serum albumin (BSA) and 0.03% Triton X-100 in PBS, acid-washed with 2N HCl and phosphate/citric acid buffer (pH 7.4). Next, anti-BrdU primary antibody (1:250, Thermo Scientific) or anti-NeuN primary antibody (1:300, Abcam) were added. The goat anti-rat IgGAlexa Fluor-conjugated secondary antibodies (1:200; Thermo Scientific); anti-mouse IgG Alexa Fluor-conjugated secondary antibodies (1:500; Thermo Scientific) were applied to recognize the primary antibodies of the BrdU and NeuN respectively.
as §1
The second part of mechanism study was focused on neurogenesis. The impairment of neurogenesis in the adult hippocampus has been an important evidence of the pathogenesis of Alzheimer's disease. […]

O=C([O-])c1ccccc1.[Li+] [lithium benzoate]
basal respiration (basal OCR) (cortical neurons): reduced more basal OCR than the other groups | spare respiratory capacity (cortical neurons): increasing of spare respiratory capacity | ATP production (cortical neurons; versus NaBen or LiCl): better reduction levels | proton leak (cortical neurons; versus NaBen or LiCl): better reduction levels | acute mechanically evoked pain (paw withdrawal threshold) (C57BL/6J mice; vs PBS): alleviated | time course of the antinociceptive effect (C57BL/6J mice; tested at 30, 60, 90, 120 min): obvious after 30 min of administration and lasted till 60 min | reduction of GFAP positive cells compared with LiCl ([1]; LiBen 0.5 mM vs LiCl 1 mM): better effect than LiCl | number of GFAP positive cells after Aβ25-35 exposure ([1]; post-treatment 0.5 mM): significantly reduced | protective effect with or without MK801 treatment ([2]; 0.5 mM, MK801 10 μM vs 0 μM): No obvious differences | cell survival with Aβ25-35 exposure ([2]; post-treatment 0.5 mM, MK801 0 μM): elevate the cell survival | cortical cell survival after Aβ25-35 (primary cortical neurons [3]; 10 μM Aβ 25-35 for 2 days, then drug 1 mM for 4 days, vs no drug treatment): statistical improvement | reduction of cell death from Aβ25-35 toxicity compared with sodium benzoate and lithium chloride (primary cortical neurons [3]; 1 mM each, 4 days): much more than the other two drugs | cell survival, drug only (primary cortical neurons [4]; cortical culture treated only with lithium benzoate, not 3-NP): No difference | cell survival (protection from 3-NP induced neuron death) (primary cortical neurons [4]; lithium benzoate 1 mM or 3 mM pre-treatment 24 h, then 2.5 mM 3-NP 24 h): significantly protected | MAP-2 immunocytochemistry, confocal microscopy (primary cortical neurons [4]; lithium benzoate 1 or 3 mM, 3-NP exposure): neuronal protection | neurogenesis (BrdU(+)/NeuN(+) cells) after Aβ25-35 exposure (primary cortical cells): unsurpassed performance of neurogenesis
